Experimental data taken from US6379959B1, “Metalocarboxypeptidase inhibitors and derived molecules used as antitumor agents” (Universitat Autonoma de Barcelona, priority 1996, dated 2002).
Positions of bridges follow the written chain, without caps; N, C: chain ends. No end group written: not given here.

Assays:
[1] = test system: embryonic cells of mice; conditions: PCI in low concentrations (5 μg/mL), in vitro; cited from earlier work
[2] = test system: human pancreatic adenocarcinoma cell line Capan-1; experiment: Growth curve of the cell line Capan-1 in presence or absence of PCI; assay type: cell-based; conditions: for Duplication time: DMEM + 10% FBS (control 85)
Experimental: The growth curve of the human pancreatic adenocarcinoma cell line Capan-1 was determined by culturing the cells in medium DMEM supplemented with 10% of FBS (see Section 4 ..B.1.). Plates with wells were used, each with a surface of 10 cm^2 (Nunc, Denmark). The number of cells initially placed per well was 1×10^5, and changes of medium were made every four days, adding new PCI in the medium in the case of the cells treated with PCI.
Three growth curves were determined (FIG. 10) in absence of PCI and in presence of PCI, in concentrations of 1 μg/mL and of 10 μg/mL. Initially, 45 replica-wells were placed for each treatment. After 15 days, three of the replica-wells of each treatment were taken and their number of cells counted by means of trypsinization and recount employing hemocytometer (for a description of the technique, see Section 4.B.1.). The results of the tests are shown in Table 13, which presents the duplication times calculated from the data.

[3] = test system: human pancreatic adenocarcinoma cell line MDAPanc-3; experiment: Proliferation test by recount of the cells number (hemocytometer), MDAPanc-3; assay type: cell-based
Experimental: In this assay and with the aim of determining whether the presence in the culture medium produces some effect on the growth in vitro of the cell lines, the final number of the cells when the control reaches monolayer is determined, in the presence and in the absence of the inhibitor. The calculation is made by direct recount of the number of cells using trypsinization and subsequent recount in a hemocytometer. The detailed method is as follows:
1. In each of the three culture flasks of 25 cm^2, 5×10^5 cells are seed and a total volume of the culture medium is added (DMEM with a 10% of fetal bovine serum or synthetic serum, according to the test) of 5 mL:
A first flask is used as control and no PCI is added to it.
PCI is added to a second flask some hours after the culture has started and once the cells have adhered to the bottom of the flask. This type of test is defined as postadherence test.
PCI is added to a third flask at the same time as the culture has begun, before the cells have had time to adhere to the bottom of the flask, thus constituting the preadherence test.
2. The cells are maintained in an incubator at 37° C., 87% of relative humidity and 10% of CO2. The medium contained in the flasks is changed every 3-4 days. Medium free of PCI is added to the control flask; medium with PCI is added to the other two.
3. When the culture of one of the flasks reaches a state of monolayer (or after a specific number of days), we proceed to count the number of cells in each one of them. Firstly and in order to do that, the cells are trypsinized using the following steps:
Immediately after, the recount of the number of cells is done. To do that, an aliquot of 10 μL is taken and it is placed in an eppendorf tube. 10 μL of a solution of trypan blue dye is added. Then, it is well mixed and two aliquots of 10 μL of the mixture are taken and placed in the two zones of an hemocytometer which is placed in the inverted microscope.
The live cells are observed as being refringent and clear, while the dead ones are observed as opaque and dyed blue, for the staining is only able to penetrate dead cells. The total number of cells of the W zone of the hemocytometer is counted, differentiating between the live and the dead ones. Based on this recount, the total number of cells that was in the initial suspension (which will be the total number of cells that was in the culture) is calculated by multiplying the number obtained by 2×10^4. The viability (in %) is calculated by dividing the number of live cells by the total number of counted cells and multiplying it by 100.
The effect produced by the presence of PCI in the medium is expressed as % of cell growth inhibition, which is calculated according to the formula [formula] […]

[4] = test system: mouse melanoma B16 cell line; experiment: Metastasis test in vivo, liver metastatic focuses after intrasplenic B16 inoculation; design: species or system mice C57BL/6J; conditions: killed day 11 (control 32±7)
Experimental: In order to study the effect of the PCI on the metastatic capacity of the tumoral cells, mouse melanoma B16 cell line are used used because this line is singeneic with the mice. These cells, intrasplenically inoculated in singeneic mice, after 7 days, start to develop metastasis in the liver of the mouse. The following material was employed:
A control group: consisting of 5 mice to which 300,000 cells dissolved in 0.1 mL of alphaMEM-Hepes were inoculated. The mice, previously anaesthetized with nembutal, were inoculated by way of intrasplenic injection, by means of a little incision and subsequently closed with stitches. These mice were killed 11 days after injection of the tumoral cells by cervical dislocation.
Treatment 1: again, 5 mice were inoculated in the same way as those of the control group. Six days after the injection, a daily treatment with 0.1 mg/mL of PCI in 0.1, mL of PBS by way of intraperitoneal injection was started. The animals were also killed on the eleventh day after the injection.
Treatment 2: in this case, the cells inoculated to the mice (also 5 of them) were previously treated in vitro for 4 days in a concentration of 0.1 mg/mL of PCI. […]
Once killed, their liver was extracted. […] Afterwards, the sections were dyed with hematoxyline-eosine and the number of metastatic focuses was counted.

[5] = test system: human pancreatic adenocarcinoma cell line Capan-1; experiment: Flow cytometry analysis of cell cycle phases; assay type: cell-based; conditions: 50 µg/mL of PCI

In the case of “PCI: potato carboxypeptidase inhibitor, isoform IIa, obtained by recombinant DNA techniques in E. coli (SEQ ID NO.2) (EQHADPICNKPCKTHDDCSGAWFCQACWNSARTCGPYVG; disulfide 12-27, 18-34, 8-24)”, the “tumoral transformation induced by irradiation” value [1] is given as “inhibits in vitro the tumoral transformation”, the “density reached by the stationary stage compared with the control cells” value ([2]; 10 μg/mL of PCI) is given as “a half” and the “Duplication time” value ([2]; Treated with 1 mg/mL) is given as 90 h. For the same substance, the “Duplication time” value ([2]; Treated with 10 mg/mL) was 130 h, the “Percentage of Growth Inhibition” value ([3]; 5 mg PCI/mL, Postadhesion) was 19.1 ± 14.5% and the “Percentage of Growth Inhibition” value ([3]; 5 mg PCI/mL, Preadhesion, DMEM+10%BMS until controls confluent) was 20.7 ± 6.9%. The “Percentage of Growth Inhibition” value ([3]; 10 mg PCI/mL, Postadhesion) was 14.3 ± 12.4%, the “Percentage of Growth Inhibition” value ([3]; 10 mg PCI/mL, Preadhesion) was 14.6 ± 14.2% and the “number of metastatic focuses in liver” value ([4]; treatment 1: daily intraperitoneal 0.1 mg/mL of PCI in 0.1 mL PBS from day 6) was 27 focuses. For the same substance, the “number of metastatic focuses in liver” value ([4]; treatment 2: cells treated in vitro 4 days with 0.1 mg/mL of PCI before inoculation) was 4±1 focuses, the “% G2 M” value ([5]; 24 h (control 6.4)) was 4.7% and the “% S” value ([5]; 24 h (control 14.3)) was 20.4%. The “% G1” value ([5]; 24 h (control 79.2)) was 74.9%, the “% G1” value ([5]; 48 h) was 85.3% and the “% G2 M” value ([5]; 48 h) was 3.7%. The “% S” value ([5]; 48 h) was 11%, the “% G1” value ([5]; 72 h) was 85.1% and the “% G2 M” value ([5]; 72 h) was 4%. The “% S” value ([5]; 72 h) was 10.9%, the “% G1” value ([5]; 96 h) was 88.5% and the “% G2 M” value ([5]; 96 h) was 3.9%. The “% S” value ([5]; 96 h) was 7.6%.
